Results on three compounds are retold here after patent US7033618B2, “Methods of administering gaultherin-containing compositions” (Rutgers University, The State University of New Jersey, priority 1999, dated 2006).

Data set [1] is described as follows: Gastric irritation in fasted rats. The data set is classed as in vivo, Wistar rats. As to conditions: oral gavage, overnight-fasted rats, 4 h after treatment, extract 5000 mg/kg; for Gastric irritation Total Score: total for three rats (0-4 each), aspirin 150 mg/kg (equal total salicylate). Here is the method:
Wintergreen-derived, gaultherin-containing extract and aspirin were given by oral gavage to overnight-fasted Wistar rats (200+/−20 g). The 5000 mg/kg dose of wintergreen extract and the 150 mg/kg dose of aspirin used in the experiment contain equal total amounts of salicylate. Four hours after treatment, the stomach lining was harvested and scored for gastric irritation [Guth et al., Gastroenterology, 76: 88–93 (1979)]. A score of zero was given for no sign of hyperaemia (excess blood or engorgement with blood) or bleeding. A score of one was given when hyperaemia was evident. A score of two was given when some spot bleeding was observed. A score of three was assigned for any hyperaemia and spot bleeding and a score of four for hyperaemia and spot bleeding occurred over the entire stomach. The total aspirin score for three rats was nine as all three rats experienced some hyperaemia and spot bleeding. The total wintergreen-derived, gaultherin-containing extract score was two because only two of the three rats were noted to have some hyperaemia. Based on these responses, the gastric irritation caused by wintergreen extract was substantially less (approximately five times lower) than that caused by aspirin.

Data set [2] relates to platelet aggregation in vivo (bleeding time in mouse tail tips). Put plainly: In vivo bleeding time in mouse tail tips. More on the design: species or system mice. Particulars: oral, pretreatment time 1 h, Aspirin 100 mg/kg. The method, then:
Wintergreen-derived gaultherin containing extracts were also shown to inhibit platelet aggregation in vivo. […] The gaultherin-containing extract prolonged mouse bleeding times assessed at 1, 3, and 6 hours after treatment. Therefore, gaultherin-containing extracts prevent platelet aggregation in vitro and in vivo. In vivo assay: The gaultherin-containing extract was mixed with vehicle (2% Tween 80/distilled water) and orally administered to 5 ICR […] (22+2 g) at the doses given in Table V. After 1, 3, or 6 hours of treatment, the mice were suspended in holders and 0.5 mm of the tip of each tail was transected and immersed in a test tube containing saline at 37° C. The bleeding time is defined as the time required for the bleeding to cease for a period of greater than 15 seconds. Prolongation of the bleeding time over that of control animals was then calculated. Aspirin was used as the standard to ensure that the assay was performing as expected.

A short description of data set [3]: Rat hind paw inflammatory (edema and hyperalgesia) model, Freund's adjuvant. The data set is classed as in vivo, Sprague-Dawley rats. The method, then:
Wintergreen-derived gaultherin-containing extract was administered by per-oral gavage at human dose equivalents of 200 mg and 400 mg per day and Naproxen was administered at a dose of 440 mg per day. Male Sprague-Dawley rats (300–350 grams) were treated for 5 days by gavage. Inflammation (edema and hyperalgesia) was induced 3 days prior to treatment through intraplantar injection of Freund's adjuvant (containing 170 μg Mycobacterium butyricum). Edema was determined by physical measurements of paw thickness and ankle width. Pain tolerance (i.e., pain reduction) was mechanically assessed via digital Von Frey determinations using a series of measurements at 6 locations on the surface of a paw. [Ren et al., ILAR Journal, 40(3):1–12 (1999), Kayser et al., Pain, 28:99–107 (1987)] Measurement terminated at the point of paw withdrawal, auditable indication of discomfort, or animal shuddering. Measurements were performed on left and right paws.

As for `CC(=O)Oc1ccccc1C(=O)O` [Aspirin, acetylsalicylic acid], the figures for the “Gastric irritation Total Score” value in data set [1] and in data set [1] (listed as aspirin) were 9 and “nine”, respectively. The “Gastric irritation Response” value in data set [1] (aspirin 150 mg/kg) worked out at 100%. Also, the “Avg. Bleed Time, Exp. 2” value in data set [2] was determined as 114 s. In addition, the “Avg. Bleed Time, Exp. 1” value in data set [2] (W. Extract 5000 mg/kg) stood at 120 s. The “Prolongation of bleeding time, Exp. 1” value in data set [2] (W. Extract 5000 mg/kg, over control animals) is listed as 100%. Besides, the “Prolongation of bleeding time, Exp. 2” value in data set [2] (over control animals) was determined as 73%.

As for `COC(=O)c1ccccc1O[C@@H]1O[C@H](CO[C@@H]2OC[C@@H](O)[C@H](O)[C@H]2O)[C@@H](O)[C@H](O)[C@H]1O` [Gaultherin, gaultherin], the Edema reduction in data set [3] (200 mg/day (human dose equivalent) for 5 days, per-oral gavage) worked out at 12.2%; in data set [3] (400 mg/day (human dose equivalent) for 5 days, per-oral gavage) it was 16.9%. Besides, the “improvement in pain tolerance (digital Von Frey)” value is 6.7% in data set [3] (human dose equivalent of 200 mg per day, 5 days, gavage) and 9.9% in data set [3] (human dose equivalent of 400 mg per day, 5 days, gavage).

As to `COc1ccc2cc([C@H](C)C(=O)O)ccc2c1` [Naproxen], the “anti-inflammatory and analgesic effect” value in data set [3] (440 mg per day, 5 days, gavage) is “predictable anti-inflammatory and analgesic effect”. In data set [3] (440 mg/day for 5 days, gavage), the Edema reduction is on record as 28%.
